According to patent publication US11053204B2, “Pyrimidinyloxy benzene derivatives as herbicides” (FMC Corporation, priority 2015, dated 2021):

Tests used:
Type in all cases: in vivo
rice (Oryza sativa) = assay: Test B flooded paddy test, plant response rating; conditions: 250 g ai/ha; Flood; scale of 0 to 100 where 0 is no effect and 100 is complete control; 13 to 15 days
Description: (§1) At time of treatment, test pots were flooded to 3 cm above the soil surface, treated by application of test compounds directly to the paddy water, and then maintained at that water depth for the duration of the test. Treated plants and controls were maintained in a greenhouse for 13 to 15 days, after which time all species were compared to controls and visually evaluated. […] A dash (-) response means no test result.

[1] = system: barnyardgrass (Echinochloa crus-galli); assay: Test B flooded paddy test, plant response rating; conditions: 250 g ai/ha; Flood; scale of 0 to 100 where 0 is no effect and 100 is complete control; 13 to 15 days
Description: as §1

[2] = system: ducksalad (Heteranthera limosa); assay: Test B flooded paddy test, plant response rating; conditions: 250 g ai/ha; Flood; scale of 0 to 100 where 0 is no effect and 100 is complete control; 13 to 15 days
Description: as §1

[3] = system: sedge, umbrella (small-flower umbrella sedge, Cyperus difformis); assay: Test B flooded paddy test, plant response rating; conditions: 250 g ai/ha; Flood; scale of 0 to 100 where 0 is no effect and 100 is complete control; 13 to 15 days
Description: as §1

[4] = system: Italian ryegrass (Lolium multiflorum); assay: Test A preemergence, visual injury rating
Outline: (§2)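 Visual injury scored 0–100 (100 = complete control) against untreated controls about 10 days after treatment in a greenhouse. Test chemicals, formulated with surfactant in non-phytotoxic solvent, were sprayed on soil preemergence or on 2-10 cm, one- to two-leaf plants postemergence.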

[5] = system: pigweed (Amaranthus retroflexus); assay: Test A preemergence, visual injury rating
Outline: as §2

[6] = system: barnyardgrass (Echinochloa crus-galli); assay: Test A preemergence, visual injury rating
Outline: as §2

kochia (Kochia scoparia) [7] = assay: Test A preemergence, visual injury rating
Outline: as §2

[8] = system: giant foxtail (Setaria faberii); assay: Test A preemergence, visual injury rating
Outline: as §2

[9] = system: ragweed (common ragweed, Ambrosia elatior); assay: Test A preemergence, visual injury rating
Outline: as §2

[10] = system: wheat (Triticum aestivum); assay: Test A postemergence, visual injury rating; conditions: 0 is no effect, 100 is complete control; for Wheat plant response rating: 0 to 100 scale, approximately 10 days
Description: (§3) Seeds of plant species selected from barnyardgrass (Echinochloa crus-galli), kochia (Kochia scoparia), ragweed (common ragweed, Ambrosia elatior), Italian ryegrass (Lolium multiflorum), large (Lg) crabgrass (Digitaria sanguinalis), giant foxtail (Setaria faberii), morningglory (Ipomoea spp.), pigweed (Amaranthus retroflexus), velvetleaf (Abutilon theophrasti), wheat (Triticum aestivum), and corn (Zea mays) were planted into a blend of loam soil and sand and treated preemergence with a directed soil spray using test chemicals formulated in a non-phytotoxic solvent mixture which included a surfactant.
(§4) At the same time, plants selected from these crop and weed species and also blackgrass (Alopecurus myosuroides), and galium (catchweed bedstraw, Galium aparine) were planted in pots containing the same blend of loam soil and sand and treated with postemergence applications of test chemicals formulated in the same manner. Plants ranged in height from 2 to 10 cm and were in the one- to two-leaf stage for the postemergence treatment. Treated plants and untreated controls were maintained in a greenhouse for approximately 10 days, after which time all treated plants were compared to untreated controls and visually evaluated for injury. Plant response ratings, summarized in Table A, are based on a 0 to 100 scale where 0 is no effect and 100 is complete control. A dash (-) response means no test result.

[11] = system: Italian ryegrass (Lolium multiflorum); assay: Test A postemergence, visual injury rating; conditions: 0 is no effect, 100 is complete control; for Ryegrass, Italian plant response rating: 0 to 100 scale, approximately 10 days
Description: as §3, §4

[12] = system: pigweed (Amaranthus retroflexus); assay: Test A postemergence, visual injury rating; conditions: 0 is no effect, 100 is complete control; for Pigweed plant response rating: 0 to 100 scale, approximately 10 days
Description: as §3, §4

[13] = system: barnyardgrass (Echinochloa crus-galli); assay: Test A postemergence, visual injury rating; conditions: 0 is no effect, 100 is complete control; for Barnyardgrass plant response rating: 0 to 100 scale, approximately 10 days
Description: as §3, §4

kochia (Kochia scoparia) [14] = assay: Test A postemergence, visual injury rating; conditions: 0 is no effect, 100 is complete control; for Kochia plant response rating: 0 to 100 scale, approximately 10 days
Description: as §3, §4

[15] = system: galium (catchweed bedstraw, Galium aparine); assay: Test A postemergence, visual injury rating; conditions: 0 is no effect, 100 is complete control; for Galium plant response rating: 0 to 100 scale, approximately 10 days
Description: as §3, §4

[16] = system: giant foxtail (Setaria faberii); assay: Test A postemergence, visual injury rating; conditions: 0 is no effect, 100 is complete control; for Foxtail, Giant plant response rating: 0 to 100 scale, approximately 10 days
Description: as §3, §4

[17] = system: ragweed (common ragweed, Ambrosia elatior); assay: Test A postemergence, visual injury rating; conditions: 0 is no effect, 100 is complete control; for Ragweed plant response rating: 0 to 100 scale, approximately 10 days
Description: as §3, §4

corn (Zea mays) = assay: Test A postemergence, visual injury rating; conditions: 0 is no effect, 100 is complete control; for Corn plant response rating: 0 to 100 scale, approximately 10 days
Description: as §3, §4

[18] = system: blackgrass (Alopecurus myosuroides); assay: Test A postemergence, visual injury rating; conditions: 0 is no effect, 100 is complete control; for Blackgrass plant response rating: 0 to 100 scale, approximately 10 days
Description: as §3, §4

[19] = 31 g ai/ha, 0 to 100 scale, 0 no effect, 100 complete control
[20] = 125 g ai/ha, 0 to 100 scale (0 no effect, 100 complete control)

CCCCC(=O)c1c(C#N)cccc1Oc1ncc(Cl)cn1 [Compound 68]
Plant response rating, Rice (rice (Oryza sativa)): 0 | Plant response rating, Barnyardgrass [1]: 0 | Plant response rating, Ducksalad [2]: 0 | Plant response rating, Sedge, Umbrella [3]: 0 | Plant response rating, Ryegrass, Italian [4, 19]: 0 | Ryegrass, Italian plant response rating [4, 20]: 0 | Plant response rating, Pigweed [5, 19]: 20 | Pigweed plant response rating [5, 20]: 80 | Plant response rating, Barnyardgrass [6, 19]: 10 | Barnyardgrass plant response rating [6, 20]: 70 | Plant response rating, Kochia (kochia (Kochia scoparia) [7]; [19]): 0 | Kochia plant response rating (kochia (Kochia scoparia) [7]; [20]): 30 | Plant response rating, Foxtail, Giant [8, 19]: 10 | Foxtail, Giant plant response rating [8, 20]: 80 | Plant response rating, Ragweed [9, 19]: 0 | Ragweed plant response rating [9, 20]: 0 | Wheat plant response rating ([10]; 31 g ai/ha): 0 | Wheat plant response rating (0 to 100 scale) ([10]; 125 g ai/ha): 0 | Ryegrass, Italian plant response rating ([11]; 31 g ai/ha): 0 | Ryegrass, Italian plant response rating (0 to 100 scale) ([11]; 125 g ai/ha): 0 | Pigweed plant response rating ([12]; 31 g ai/ha): 20 | Pigweed plant response rating (0 to 100 scale) ([12]; 125 g ai/ha): 90 | Barnyardgrass plant response rating ([13]; 31 g ai/ha): 10 | Barnyardgrass plant response rating (0 to 100 scale) ([13]; 125 g ai/ha): 30 | Kochia plant response rating (kochia (Kochia scoparia) [14]; 31 g ai/ha): 20 | Kochia plant response rating (0 to 100 scale) (kochia (Kochia scoparia) [14]; 125 g ai/ha): 40 | Galium plant response rating ([15]; 31 g ai/ha): 20 | Galium plant response rating (0 to 100 scale) ([15]; 125 g ai/ha): 60 | Foxtail, Giant plant response rating ([16]; 31 g ai/ha): 20 | Foxtail, Giant plant response rating (0 to 100 scale) ([16]; 125 g ai/ha): 30 | Ragweed plant response rating ([17]; 31 g ai/ha): 0 | Ragweed plant response rating (0 to 100 scale) ([17]; 125 g ai/ha): 20 | Corn plant response rating (corn (Zea mays); 31 g ai/ha): 10 | Corn plant response rating (0 to 100 scale) (corn (Zea mays); 125 g ai/ha): 20 | Blackgrass plant response rating ([18]; 31 g ai/ha): 10 | Blackgrass plant response rating (0 to 100 scale) ([18]; 125 g ai/ha): 30

CCCC(C#N)c1c(Br)cccc1Oc1ncc(Cl)cn1 (stereo not drawn) [Compound 118]
Plant response rating, Rice (rice (Oryza sativa)): 0 | Plant response rating, Barnyardgrass [1]: 0 | Plant response rating, Ducksalad [2]: 0 | Plant response rating, Sedge, Umbrella [3]: 50 | Plant response rating, Ryegrass, Italian [4, 19]: 0 | Plant response rating, Ryegrass, Italian [4, 20]: 0 | Plant response rating, Pigweed [5, 19]: 20 | Plant response rating, Pigweed [5, 20]: 50 | Plant response rating, Barnyardgrass [6, 19]: 0 | Plant response rating, Barnyardgrass [6, 20]: 0 | Plant response rating, Kochia (kochia (Kochia scoparia) [7]; [19]): 0 | Plant response rating, Kochia (kochia (Kochia scoparia) [7]; [20]): 0 | Plant response rating, Foxtail, Giant [8, 19]: 0 | Plant response rating, Foxtail, Giant [8, 20]: 20 | Plant response rating, Ragweed [9, 19]: 100 | Plant response rating, Ragweed [9, 20]: 50 | Wheat plant response rating ([10]; 31 g ai/ha): 0 | Wheat plant response rating ([10]; 125 g ai/ha): 0 | Ryegrass, Italian plant response rating ([11]; 31 g ai/ha): 0 | Ryegrass, Italian plant response rating ([11]; 125 g ai/ha): 0 | Pigweed plant response rating ([12]; 31 g ai/ha): 40 | Pigweed plant response rating ([12]; 125 g ai/ha): 60 | Barnyardgrass plant response rating ([13]; 31 g ai/ha): 0 | Barnyardgrass plant response rating ([13]; 125 g ai/ha): 10 | Kochia plant response rating (kochia (Kochia scoparia) [14]; 31 g ai/ha): 30 | Kochia plant response rating (kochia (Kochia scoparia) [14]; 125 g ai/ha): 60 | Galium plant response rating ([15]; 31 g ai/ha): 10 | Galium plant response rating ([15]; 125 g ai/ha): 30 | Foxtail, Giant plant response rating ([16]; 31 g ai/ha): 0 | Foxtail, Giant plant response rating ([16]; 125 g ai/ha): 10 | Ragweed plant response rating ([17]; 31 g ai/ha): 0 | Ragweed plant response rating ([17]; 125 g ai/ha): 10 | Corn plant response rating (corn (Zea mays); 31 g ai/ha): 0 | Corn plant response rating (corn (Zea mays); 125 g ai/ha): 10 | Blackgrass plant response rating ([18]; 31 g ai/ha): 0 | Blackgrass plant response rating ([18]; 125 g ai/ha): 0
